Measurements reported in patent US9228952B2, “Hematopoietic stem cell identification probe” (CANON KABUSHIKI KAISHA, priority 2012, dated 2016).

Tests used:
[1] = system: c-Kit positive hematopoietic stem cells (bone marrow cells); assay: Experimental Example 19: exposure to compound 7 in the presence of test substances, c-Kit staining, FACS; type: cell-based, mouse
Experimental: Cells collected from a mouse in the same manner as in Experimental Example 1 were exposed to the compound 7 in the presence of test substances of fumitremorgin C and digoxin (both in 1 μM). After performing a blocking treatment in the same manner as in Experimental Example 1, the resulting cells were stained with an anti c-Kit antibody, that is, a marker for hematopoietic stem cells and hematopoietic precursor cells. The cells were further subjected to the dead cell staining with TO-PRO-3. Next, the cells were analyzed with FACS Aria II cell sorter manufactured by BD Biosciences. In the analysis, cell populations having a low TO-PRO-3 signal were regarded as a target, so that the analysis could be performed on a cell population excluding dead cells.
In other words, hematopoietic stem cell groups that were c-Kit positive and negative for the compound 7-derived signal were confirmed to be reduced by adding the test substances.

[2] = system: hematopoietic stem cells (bone marrow cells); assay: Identification of hematopoietic stem cells in stained bone marrow cells by FACS with antibody markers (Experimental Examples 1-17, Comparative Examples 1-2); type: cell-based, C57BL/6 mouse; design: key to Identification of hematopoietic stem cells: A: Hematopoietic stem cells are identified very well.; B: Hematopoietic stem cells are identified well.; C: Hematopoietic stem cells are poorly identified; details: for Identification of hematopoietic stem cells: mouse bone marrow cells, FACS
Experimental: A 1 mM DMSO solution of the compound 7 was added to an HBSS buffer containing 2% of FBS and 10 mM of HEPES, so as to obtain a stain of the compound 7 in a concentration of 1 μM. Bone marrow cells collected from a femur of a C57BL/6 mouse (of 12 weeks old) and hemolyzed were added to the stain in an amount of 1×10^6 cells/mL for exposure at 37° C. for 30 minutes. After the exposure, the cells were precipitated by centrifuge for removing the stain, and a blocking treatment was performed with 2.4G2 (anti-mouse Fcγ receptor II/III antibody-producing hybridoma supernatant). The blocked cells were further subjected to immunofluorescence staining with an anti c-Kit antibody, an anti Sca-1 antibody, an anti CD34 antibody and Lineage Marker. Furthermore, the cells were subjected to dead cell staining with TO-PRO-3. The respective antibodies used for fluorescence staining were selected so that the respective fluorescence wavelengths might not overlap one another and might not overlap the fluorescence wavelength of the compound 7 and the fluorescence wavelength of TO-PRO-3. Next, the resulting cells were analyzed with FACS Aria II cell sorter manufactured by BD Biosciences. In the analysis, cell populations having a low TO-PRO-3 signal were regarded as a target, so that the analysis could be performed on a cell population excluding dead cells.
First, fluorescence intensities of the cells obtained by analyzing fluorescence signals derived from the compound 7 based on signal intensities in two channels excited at 488 nm (PE-Cy5; 660/20 nm and PerCP-Cy 5.5; 710/50 nm: center wavelength/wavelength width) were developed into a cytogram.
Furthermore, among Lineage Marker negative cell fractions, cell fractions of Sca-1 positive, c-Kit positive and CD34 negative, which are used as markers for hematopoietic stem cells, were developed into cytograms as illustrated in FIG. 2 with respect to the two fluorescence signals derived from the compound 7 as in FIG. 1. […] Furthermore, merely cells identified by the compound 7 were separated by sorting.
Fluorescence signals derived from the compounds 8 to 23 were analyzed in the same manner as in Experimental Example 1 except that the compound 7 used in Experimental Example 1 was changed to each of the compounds 8 to 23.
Fluorescence signals derived from fluorescein were analyzed in the same manner as in Experimental Example 1 except that the compound 7 used in Experimental Example 1 was changed to fluorescein.
Fluorescence signals derived from Mito Tracker® Green FM were analyzed in the same manner as in Experimental Example 1 except that the compound 7 used in Experimental Example 1 was changed to Mito Tracker® Green FM.
The identification was evaluated in the following three grades A to C: […]

[3] = Measurement of fluorescence characteristics of compounds (fluorescence spectrophotometer); type: physicochemical; details: 5 μM DMSO solution
Experimental: With respect to each of the compounds 7 to 23, a 5 μM DMSO solution was prepared, and an excitation wavelength and a fluorescence wavelength were measured by using a fluorescence spectrophotometer FL4500 manufactured by Hitachi High-Technologies Corporation (Table 1).

[4] = system: CD48 negative and CD150 positive fraction of bone marrow cells; assay: Experimental Example 18: compound 7 staining with anti CD48 / anti CD150 antibody markers, flow cytometry; type: cell-based, mouse; details: cytogram of two compound 7-derived fluorescence signals
Excerpt: Cells collected from a mouse were subjected to the exposure to the compound 7 and a blocking treatment in the same manner as in Experimental Example 1. In order to evaluate incorporation of antibody markers, used as test substances, of an anti CD48 antibody and an anti CD150 antibody by hematopoietic stem cells, the blocked cells were further stained with the anti CD48 antibody and the anti CD150 antibody. Furthermore, the resulting cells were subjected to dead cell staining with TO-PRO-3. Next, the cells were analyzed with an FACS Canto II flow cytometer manufactured by BD Biosciences. In the analysis, cell populations having a low TO-PRO-3 signal were regarded as a target, so that the analysis could be performed on a cell population excluding dead cells.

[5] = cells exposed to compound 7 in the presence of test substance 1 μM

Compound	Excitation wavelength λex [3]	Fluorescence wavelength λem [3]	c-Kit positive, compound 7-derived signal negative hematopoietic stem cells in the whole cells [1, 5]	Identification of hematopoietic stem cells ([2]; stain 1 μM, 37° C., 30 minutes)	Whether hematopoietic stem cells can be identified (in words) ([2]; same manner as Experimental Example 1)	Lineage Marker negative, Sca-1 positive, c-Kit positive and CD34 negative hematopoietic stem cell fractions found in cell population having low incorporation of the probe ([2]; stain 1 μM, 37° C., 30 minutes, two channels excited at 488 nm)	Cells of CD48 negative and CD150 positive fraction present in region where hematopoietic stem cells were identified [4]	c-Kit positive, compound 7-derived signal negative hematopoietic stem cells in the whole cells ([1]; in the absence of an inhibitor (w/o inhibitors))
COc1ccc2c3c([nH]c2c1)[C@H](C=C(C)C)N1C(=O)[C@@H]2CCCN2C(=O)[C@@H]1C3 [fumitremorgin C]			0.00%					
O=C1OC2(c3ccc(O)cc3Oc3cc(O)ccc32)c2ccccc21 [Fluorescein, fluorescein, reference compound]				C (not stained				
CCN1C(=O)/C(=c2\s/c(=C/c3cc(Br)c4c(c3)C3CCCC3N4c3ccc(Br)cc3)c(=O)n2CC(=O)O)SC1=S (stereo not shown) [Compound 8]	513 nm	600 nm		A				
C[C@H]1O[C@@H](O[C@H]2[C@@H](O)C[C@H](O[C@H]3[C@@H](O)C[C@H](O[C@H]4CC[C@@]5(C)[C@H](CC[C@@H]6[C@@H]5C[C@@H](O)[C@]5(C)[C@@H](C7=CC(=O)OC7)CC[C@]65O)C4)O[C@@H]3C)O[C@@H]2C)C[C@H](O)[C@@H]1O [digoxin]			0.50%					
COc1ccc(N2c3ccc(/C=c4/s/c(=C5/SC(=S)N(Cc6ccccc6)C5=O)n(CC(=O)O)c4=O)cc3C3CCCC32)cc1 (stereo not shown) [Compound 11]	542 nm	643 nm		A				
CCCCN1C(=O)/C(=c2\s/c(=C/c3ccc4c(c3)C3CCCC3N4c3ccc(OC)cc3)c(=O)n2CC)SC1=S (stereo not shown) [Compound 7]	539 nm	638 nm		A	hematopoietic stem cells can be identified	94.7%	89.4%	0.75%
O=C(O)Cn1c(=O)/c(=C\c2ccc3c(c2)C2CCCC2N3Cc2ccccc2)s/c1=C1/SC(=S)N(Cc2ccccc2)C1=O (stereo not shown) [Compound 10]	540 nm	614 nm		A				
CCN1C(=O)/C(=c2\s/c(=C/c3ccc4c(c3)C3CCCC3N4c3ccccc3)c(=O)n2CC(=O)O)SC1=S (stereo not shown) [Compound 12]	531 nm	615 nm		A				
CCN1C(=O)/C(=c2\s/c(=C/c3ccc4c(c3)C3CCCC3N4c3ccc(OC)cc3)c(=O)n2CC(=O)O)SC1=S (stereo not shown) [Compound 9]	543 nm	638 nm		A				

Now from value to compound, other results behind:

Excitation wavelength λex [3]	Fluorescence wavelength λem [3]	Compound	c-Kit positive, compound 7-derived signal negative hematopoietic stem cells in the whole cells [1, 5]	Identification of hematopoietic stem cells ([2]; stain 1 μM, 37° C., 30 minutes)	Whether hematopoietic stem cells can be identified (in words) ([2]; same manner as Experimental Example 1)	Lineage Marker negative, Sca-1 positive, c-Kit positive and CD34 negative hematopoietic stem cell fractions found in cell population having low incorporation of the probe ([2]; stain 1 μM, 37° C., 30 minutes, two channels excited at 488 nm)	Cells of CD48 negative and CD150 positive fraction present in region where hematopoietic stem cells were identified [4]	c-Kit positive, compound 7-derived signal negative hematopoietic stem cells in the whole cells ([1]; in the absence of an inhibitor (w/o inhibitors))
539 nm	636 nm	CCN1C(=O)/C(=c2\s/c(=C/c3ccc4c(c3)C3CCCC3N4c3ccc(SC)cc3)c(=O)n2CC(=O)O)SC1=S (stereo not shown) [Compound 13]		A				
504 nm	606 nm	C=CCN1C(=O)/C(=c2\s/c(=C/c3ccc4c(c3)C3CCCC3N4c3ccc(OC)cc3)c(=O)n2CC(=O)O)SC1=S (stereo not shown) [Compound 15]		A				
511 nm	626 nm	COc1ccc(N2c3ccc(/C=C4/SC(=S)N(CC(=O)NCC(=O)O)C4=O)cc3C3CCCC32)cc1 (stereo not shown) [Compound 22]		A				
535 nm	612 nm	CCN1C(=O)/C(=c2\s/c(=C/c3ccc4c(c3)C3CCCC3N4Cc3ccccc3)c(=O)n2CC(=O)O)SC1=S (stereo not shown) [Compound 17]		A				
538 nm	638 nm	CCCCCN1C(=O)/C(=c2\s/c(=C/c3ccc4c(c3)C3CCCC3N4c3ccc(OC)cc3)c(=O)n2CC)SC1=S (stereo not shown) [Compound 19]		B				
539 nm	636 nm	CCCN1C(=O)/C(=c2\s/c(=C/c3ccc4c(c3)C3CCCC3N4c3ccc(OC)cc3)c(=O)n2CC)SC1=S (stereo not shown) [Compound 18]		A				
500 nm	578 nm	CCN1C(=O)S/C(=c2/s/c(=C/c3ccc4c(c3)C3CCCC3N4Cc3ccccc3)c(=O)n2CC(=O)O)C1=O (stereo not shown) [Compound 16]		B				
596 nm	520 nm	CCN1C(=O)/C(=c2\s/c(=C/c3cc(Br)c4c(c3)C3CCCC3N4Cc3ccccc3)c(=O)n2CC(=O)O)SC1=S (stereo not shown) [Compound 14]		A				
499 nm	598 nm	O=C(O)CNC(=O)CN1C(=O)/C(=C\c2ccc3c(c2)C2CCCC2N3c2ccccc2)SC1=S (stereo not shown) [Compound 23]		A				
530 nm	612 nm	CCN1C(=O)/C(=c2\s/c(=C/c3ccc4c(c3)C3CCCC3N4c3cccc(SC)c3)c(=O)n2CC(=O)O)SC1=S (stereo not shown) [Compound 21]		A				
533 nm	615 nm	CCn1c(=O)/c(=C\c2ccc3c(c2)C2CCCC2N3c2ccccc2)s/c1=C1/SC(=S)N(CC(=O)O)C1=O (stereo not shown) [Compound 20]		B				
